Measurements taken from patent US9167812B2, “Biocide compositions comprising amides based on 2-furoic acid and its derivatives” (Cognis IP Management GmbH, priority 2010, dated 2015).
Where two headings read alike, the source gives them in different places.

What was measured:
[1] = Solubility in water of each amide; assay type: physicochemical
Procedure: (§1) Solubility of several pesticides was measured in THF amides versus other amides. In addition the solubility in water of each amide has been checked.

[2] = Solubility of pesticides in THF amides versus other amides; assay type: physicochemical
Procedure: as §1

[3] = solubility of the amide solvent in water

With `CN(C)C(=O)c1ccco1` [Example 5, 2-Furoic acid dimethyl amide] as the compound, how does the Water solubility [1, 3] read?
Its Water solubility is “Medium”.

With `CCCCN(CCCC)C(=O)c1ccco1` [Example 6, 2-Furoic acid dibutyl amide] as the compound, how does the Water solubility [1, 3] read?
Its Water solubility is “Medium”.

For `CN(C)C(=O)C1CCCO1` (stereo not shown) [Example 7, THF dimethyl amide], which Water solubility [1] is on record?
Its Water solubility is “High”.

What about the “Solubility of biocides: Epoxyconazole” value [2] of the same compound?
Its value is 10 % b.w.

What about the “Solubility of biocides: Imidacloprid” value [2] of the same compound?
Its value is 19 % b.w.

What about the “Solubility of biocides: Oxyfluorfen” value [2] of the same compound?
Its value is 31 % b.w.

What about the “Solubility of biocides: Tebuconazole” value [2] of the same compound?
Its value is 46 % b.w.

For `CCCCN(CCCC)C(=O)C1CCCO1` (stereo not shown) [Example 8, 2-Tetrahydrofuroic Acid Dibutylamide], which Water solubility [1, 3] is on record?
The Water solubility was “Medium”.

With `CCCCCCCCCC(=O)N(C)C` [Example C3, C10 dimethyl amide, reference compound] as the compound, how does the Water solubility [1, 3] read?
The Water solubility was “Low”.

And the “Solubility of biocides: Epoxyconazole” value ([2]; Epoxyconazole dissolved in the named solvent)?
Its value is 8 % b.w.

And the “Solubility of biocides: Imidacloprid” value ([2]; Imidacloprid dissolved in the named solvent)?
Its value is 2 % b.w.

And the “Solubility of biocides: Oxyfluorfen” value ([2]; Oxyfluorfen dissolved in the named solvent)?
The value was 27 % b.w.

What about the “Solubility of biocides: Tebuconazole” value ([2]; Tebuconazole dissolved in the named solvent) of the same compound?
The value was 32 % b.w.
